{"source": "paper PMC9144521", "about": "(Viruses, 2022)", "key": {"[1]": {"tested_on": "AdV3", "assay": "Anti-AdV activity assay (IFA of hexon), secondary screen, AdV3", "type": "cell-based, Human adenoviruses type 3", "conditions": "for Selective Index AdV3: CC50/EC50, Vero cells; for EC50: 48 h, IFA of hexon, 0.02 to 5 μM"}, "[2]": {"tested_on": "AdV5", "assay": "Anti-AdV activity assay (IFA of hexon), secondary screen, AdV5", "type": "cell-based, Human adenoviruses type 5", "conditions": "for Selective Index AdV5: CC50/EC50, Vero cells; for EC50: 48 h, IFA of hexon, 0.02 to 5 μM"}, "[3]": {"tested_on": "adenovirus 5", "parameters": "method as in ref 28, 31 = [28]", "conditions": "cited from earlier work"}, "[4]": {"assay": "in vitro", "conditions": "African green monkey"}, "[5]": {"tested_on": "Aurora A/B/C", "conditions": "cited from earlier work"}, "[6]": {"tested_on": "Vero cells"}, "[7]": {"tested_on": "Aurora A", "parameters": "method as in ref 25 = [25]", "conditions": "cited from earlier work"}}, "data": [{"molecule": "C=CCNC1=C2C[C@@H](C)C[C@H](OC)[C@H](O)[C@@H](C)/C=C(\\C)[C@H](OC(N)=O)[C@@H](OC)/C=C\\C=C(/C)C(=O)NC(=CC1=O)C2=O", "note": "[17-AAG]", "values": [{"measurement": "Selective Index AdV3", "setting": "[1]", "result": ">9.93"}, {"measurement": "EC50", "setting": "[1]; Vero cells", "result": 500, "unit": "nM"}, {"measurement": "Selective Index AdV5", "setting": "[2]", "result": ">0.46"}, {"measurement": "EC50", "setting": "[2]; Vero cells", "result": "> 5000", "unit": "nM"}, {"measurement": "reported inhibition of replication of adenovirus 5", "setting": "[3]", "result": "inhibit the replication of adenovirus 5"}, {"measurement": "CC50 at 48 h", "setting": "[4]", "result": "> 5000", "unit": "nM"}]}, {"molecule": "Cc1csc(-c2nnc(Nc3ccc(Oc4ncccc4-c4ccnc(N)n4)cc3)c3ccccc23)c1", "note": "[AMG-900]", "values": [{"measurement": "Selective Index AdV3", "setting": "[1]", "result": 226.12}, {"measurement": "inhibition of AdV3 (in words)", "setting": "[1]; Vero cells", "result": "potently inhibits only AdV3"}, {"measurement": "EC50", "setting": "[1]; Vero cells", "result": 20, "unit": "nM"}, {"measurement": "inhibition of AdV5 (in words)", "setting": "[2]; Vero cells", "result": "but not AdV5"}, {"measurement": "EC50", "setting": "[2]; Vero cells", "result": "> 5000", "unit": "nM"}, {"measurement": "selectivity for Aurora kinases than p38α, Tyk2, and JNK2", "setting": "[5]", "result": "> 10", "unit": "fold"}, {"measurement": "CC50 at 48 h", "setting": "[4]", "result": 3690, "unit": "nM"}]}, {"molecule": "Cc1cc(Nc2cc(N3CCN(C)CC3)nc(/C=C/c3ccccc3)n2)n[nH]1.O=C(O)C(O)C(O)C(=O)O", "note": "[ENMD-2076 L-(+)-Tartaric acid]", "values": [{"measurement": "EC50", "setting": "[1]; Vero cells", "result": 1350, "unit": "nM"}, {"measurement": "EC50", "setting": "[2]; Vero cells", "result": 1390, "unit": "nM"}, {"measurement": "CC50", "setting": "[6]", "result": 4340, "unit": "nM"}, {"measurement": "selectivity for Aurora A than Aurora B", "setting": "[7]", "result": 25, "unit": "fold"}]}, {"molecule": "O=C(/C=C\\n1cnc(-c2cc(C(F)(F)F)cc(C(F)(F)F)c2)n1)NNc1ccccn1", "note": "[KPT-335]", "values": [{"measurement": "Selective Index AdV3", "setting": "[1]", "result": 12.65}, {"measurement": "EC50", "setting": "[1]; Vero cells", "result": 150, "unit": "nM"}, {"measurement": "Selective Index AdV5", "setting": "[2]", "result": 3.14}, {"measurement": "EC50", "setting": "[2]; Vero cells", "result": 610, "unit": "nM"}, {"measurement": "reported inhibition of replication of adenovirus 5", "setting": "[3]", "result": "inhibit the replication of adenovirus 5"}, {"measurement": "CC50 at 48 h", "setting": "[4]; Vero cells", "result": 1900, "unit": "nM"}]}, {"molecule": "N#Cc1c(Oc2ccc(F)c(NC(=O)Cc3cccc(C(F)(F)F)c3)c2)ccc2nc(NC(=O)C3CC3)sc12", "note": "[TAK-632]", "values": [{"measurement": "Selective Index AdV3", "setting": "[1]", "result": 11.15}, {"measurement": "EC50", "setting": "[1]; Vero cells", "result": 180, "unit": "nM"}, {"measurement": "Selective Index AdV5", "setting": "[2]", "result": 12.3}, {"measurement": "EC50", "setting": "[2]; Vero cells", "result": 160, "unit": "nM"}, {"measurement": "CC50", "setting": "[6]", "result": 1990, "unit": "nM"}]}, {"molecule": "CCNC(=O)c1[nH]nc(-c2cc(Cl)c(O)cc2O)c1-c1ccc(OC)cc1", "note": "[VER-49009]", "values": [{"measurement": "Selective Index AdV3", "setting": "[1]", "result": ">186.00"}, {"measurement": "EC50", "setting": "[1]; Vero cells", "result": 30, "unit": "nM"}, {"measurement": "Selective Index AdV5", "setting": "[2]", "result": ">60.00"}, {"measurement": "EC50", "setting": "[2]; Vero cells", "result": 80, "unit": "nM"}, {"measurement": "CC50", "setting": "[6]", "result": "> 5000", "unit": "nM"}]}, {"molecule": "c1cncc(CN2CCC(n3ncc4c(N5CCOCC5)nc(-c5ccc6[nH]ccc6c5)nc43)CC2)c1", "note": "[WAY-600]", "values": [{"measurement": "Selective Index AdV3", "setting": "[1]", "result": 5.51}, {"measurement": "EC50", "setting": "[1]; Vero cells", "result": 560, "unit": "nM"}, {"measurement": "Selective Index AdV5", "setting": "[2]", "result": 2.86}, {"measurement": "EC50", "setting": "[2]; Vero cells", "result": 1090, "unit": "nM"}, {"measurement": "CC50", "setting": "[6]", "result": 3110, "unit": "nM"}]}, {"molecule": "CNC(=O)Nc1ccc(-c2nc(N3CC4CCC(C3)O4)c3cnn(C4CCC5(CC4)OCCO5)c3n2)cc1", "note": "[WYE-125132]", "values": [{"measurement": "Selective Index AdV3", "setting": "[1]", "result": ">89.17"}, {"measurement": "EC50", "setting": "[1]; Vero cells", "result": 60, "unit": "nM"}, {"measurement": "Selective Index AdV5", "setting": "[2]", "result": ">32.47"}, {"measurement": "EC50", "setting": "[2]; Vero cells", "result": 150, "unit": "nM"}, {"measurement": "CC50", "setting": "[6]", "result": "> 5000", "unit": "nM"}]}, {"molecule": "CC[C@@H](C)Nc1cc(C(=O)N[C@H]2C[C@H]3CC[C@@H](C2)N3c2ccc(C(=O)C3CC3)cn2)c(C)cc1C(N)=O", "note": "[XL888]", "values": [{"measurement": "Selective Index AdV3", "setting": "[1]", "result": ">29.69"}, {"measurement": "EC50", "setting": "[1]; Vero cells", "result": 170, "unit": "nM"}, {"measurement": "Selective Index AdV5", "setting": "[2]", "result": ">10.33"}, {"measurement": "EC50", "setting": "[2]; Vero cells", "result": 480, "unit": "nM"}, {"measurement": "CC50", "setting": "[6]", "result": "> 5000", "unit": "nM"}]}]}
